Measurements taken from patent publication US9539298B2, “Lissencephaly therapeutic agent” (OSAKA CITY UNIVERSITY, priority 2010, dated 2017).

Experiments:
[1] = tested on: LIS1 heterozygous mouse embryos; assay: LIS1 protein in mouse embryo brains after SNJ-1945 intraperitoneal administration; format: in vivo
Description: A neo(−)129S-Pafah1b1^tm2Awb/J homozygous male mouse lacking neo gene was mated with five homozygous EII-Cre transgenic female mice (FVB/N-Tg (EIIa-cre) C5379Lmgd/J, The Jackson Laboratory) by raising them in the same mouse cage. In total, six sets of mouse cages were prepared for the mating experiment. The neo(−)129S-Pafah1b1^tm2Awb/J homozygous mouse were prepared in the same manner as above. Plug check (confirmation of mating) was carried out every morning between 7 and 10 am, thereby determining the gestation cycle. SNJ-1945 was dissolved in dimethyl sulfoxide (DMSO; Sigma, D8779) at a concentration of 100 mg/ml, and intraperitoneally injected to the pregnant mice so that the administration amount became 100 μg per gram of body weight upon Day 12 of embryo period (E12) (intraperitoneal administration). To determine the effect of SNJ-1945 administration, LIS1 proteins of normal mouse embryos and those of LIS1 heterozygous mouse embryos (administered with SNJ-1945) were measured. […]
Pregnant mice were killed by cervical fracture, and the mouse embryos were immediately isolated to obtain the brain tissues. For the measurement of LIS1 protein amount, the brain weights were immediately measured as soon as the brains were removed.

[2] = tested on: LIS1 heterozygous mice (lissencephaly model mice); assay: Behavior analysis: Gait Analysis; format: in vivo, mouse; conditions: 200 μg/g per day oral; for Swing-to-Stance Ratio: FIG. 13
Description: To conduct a behavior analysis experiment, wild-type mice and Lis1 (^+/−) heterozygous mice were divided into five groups (C group, M1 group, M2 group, M3 group, and M4 group). The details regarding the mice in each group are described below. CE-2 (CLEA Japan, Inc.) was used as mice feed. The wild-type mice and heterozygous mice used for this experiment were prepared in the same method as described in the above section “Preparation of LIS1 gene hetero-deficient mice (LIS1 heterozygous mice).”
M2 group: LIS1 heterozygous mice prepared as follows. SNJ-1945 was dissolved in dimethyl sulfoxide (Sigma, D-5879) at a concentration of 100 mg/ml, and administered to pregnant mice from Day 9.5 of the embryonic period (E9.5) in an amount of 200 μg per gram of maternal body weight per day. The administration was performed by adding SNJ-1945 to mice feed. During the postnatal period, the administration was continued in the same manner as in M3 group below. M3 group: LIS1 heterozygous mice prepared as follows. […]
By adding SNJ-1945 to the mice feed (CE-2, CLEA Japan, Inc.), SNJ-1945 was continuously administered to the mice so that the administration amount became 200 μg per gram of body weight per day through oral administration. For a behavior analysis experiment, 12 to 16 mice were grouped to be subjected to preliminary breeding in the behavior experiment facility for 1 to 2 weeks; thereafter, the behavior of the mice was analyzed at an age of about 9 to 12 weeks. After the behavior analysis experiment, a gene type was determined for all mice.
Statistical processing of experiment data of mice behavior analysis was conducted using Stat View (SAS institute) statistics software. ANOVA assay (analysis of variance between multiple groups) was conducted for all five groups, and a group with a risk rate (p value) of less than 5% (p<0.05) was determined to have a significant difference. […]

Structure (SMILES): COCCOCCOC(=O)N[C@@H](CC(C)C)C(=O)N[C@@H](Cc1ccccc1)C(=O)C(=O)NC1CC1 [compound 17, ((1S)-1-((((1S)-1-Benzyl-2,3-dioxo-3-(cyclopropylamino)propyl)amino)carbonyl)-3-methylbutyl)carbamic acid 5-methoxy-3-oxapentyl ester]
- LIS1 protein amount in embryo brain ([1]; 100 μg per gram of body weight IP to pregnant mice, E12, FIG. 6): recovered to a substantially normal level
- duration of the effect on LIS1 protein after a single dose ([1]; 100 μg/g IP to pregnant mice, E12): continued for at least three days
- % Swing ([2]; M2, M3 and M4 groups, FIG. 12): there was no significant difference compared with C group
- Swing-to-Stance Ratio ([2]; M2 group (administration from E9.5)): recovered to a level at which there was no significant difference with C group
- Swing-to-Stance Ratio ([2]; M3 and M4 groups (administration from birth / postnatal Day 10)): closer to 1 than M1 group
